ChEMBL document CHEMBL1201862, “PubChem BioAssay data set” (2004)
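Interpolation was linear, between the two tested concentrations surrounding the appropriate level; five concentrations were tested over 48 hours in 96-well plates. GI50: concentration for 50% inhibition of growth.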 The source made the active and inactive calls. No stated cut-off is given here; in the data, active = GI50 up to about 1.1 µM and inactive = higher.

Columns and labels:
Experiment in all cases: NCI-60 cell line screen, 48 h
HCC 2998 = tested on: HCC 2998
NCI/ADR-RES = tested on: NCI/ADR-RES
ACHN = tested on: ACHN
COLO 205 = tested on: COLO 205
LOX IMVI = tested on: LOX IMVI
RPMI-8226 = tested on: RPMI-8226
SNB-75 = tested on: SNB-75
UACC-62 = tested on: UACC-62
T47D = tested on: T47D
SR = tested on: SR
MCF7 = tested on: MCF7
Hs-578T = tested on: Hs-578T
PC-3 = tested on: PC-3
NCI-H460 = tested on: NCI-H460
SK-MEL-2 = tested on: SK-MEL-2
OVCAR-8 = tested on: OVCAR-8
CAKI-1 = tested on: CAKI-1
SK-MEL-28 = tested on: SK-MEL-28
SK-MEL-5 = tested on: SK-MEL-5
BT-549 = tested on: BT-549

| SMILES | GI50 (HCC 2998) | GI50 (NCI/ADR-RES) | GI50 (ACHN) | GI50 (COLO 205) | GI50 (LOX IMVI) | GI50 (RPMI-8226) | GI50 (SNB-75) | GI50 (UACC-62) | GI50 (T47D) | GI50 (SR) | GI50 (MCF7) | GI50 (Hs-578T) | GI50 (PC-3) | GI50 (NCI-H460) | GI50 (SK-MEL-2) | GI50 (OVCAR-8) | GI50 (CAKI-1) | GI50 (SK-MEL-28) | GI50 (SK-MEL-5) | GI50 (BT-549) |
| --- | --- | --- | --- | --- | --- | --- | --- | --- | --- | --- | --- | --- | --- | --- | --- | --- | --- | --- | --- | --- |
| O=C(O)C(Cl)(c1ccccc1)c1ccccc1 | > 100 µM (inactive) | > 100 µM (inactive) | > 100 µM (inactive) | > 100 µM (inactive) | > 100 µM (inactive) | > 100 µM (inactive) | > 100 µM (inactive) | > 100 µM (inactive) | > 100 µM (inactive) | > 100 µM (inactive) | > 100 µM (inactive) | > 100 µM (inactive) | > 100 µM (inactive) | > 100 µM (inactive) | > 100 µM (inactive) | > 100 µM (inactive) | > 100 µM (inactive) | > 100 µM (inactive) | > 100 µM (inactive) | > 100 µM (inactive) |
| COc1c(C)c2c(c(=O)c3c(C)cccc3n2C)c2c1c(=O)c1c(C)cccc1n2C | > 10 µM (inactive) | 9.18 µM (inactive) | > 10 µM (inactive) | > 10 µM (inactive) | > 10 µM (inactive) | 9.27 µM (inactive) | > 10 µM (inactive) | > 10 µM (inactive) | > 10 µM (inactive) | > 10 µM (inactive) | > 10 µM (inactive) | > 10 µM (inactive) | > 10 µM (inactive) | 5.62 µM (inactive) | > 10 µM (inactive) | 9.66 µM (inactive) | > 10 µM (inactive) | > 10 µM (inactive) | > 10 µM (inactive) | > 10 µM (inactive) |
| COC(OC)C1(c2ccccc2)Oc2ccccc2C1=O (stereo not given) | > 100 µM (inactive) | 80.7 µM (inactive) | > 100 µM (inactive) | > 100 µM (inactive) | > 100 µM (inactive) | > 100 µM (inactive) | > 100 µM (inactive) | > 100 µM (inactive) | > 100 µM (inactive) | > 100 µM (inactive) | > 100 µM (inactive) | > 100 µM (inactive) | > 100 µM (inactive) | > 100 µM (inactive) | > 100 µM (inactive) | > 100 µM (inactive) | > 100 µM (inactive) | > 100 µM (inactive) | 65.6 µM (inactive) | 85.9 µM (inactive) |
| COc1cccc2cc(C(=O)NC34CC5CC(CC(C5)C3)C4)c(=N)oc12 | > 54.2 µM (inactive) | > 86.1 µM (inactive) | > 67.6 µM (inactive) | 58.3 µM (inactive) | > 52.8 µM (inactive) | 25.6 µM (inactive) | 44.6 µM (inactive) | > 100 µM (inactive) | 18.2 µM (inactive) | 10.2 µM (inactive) | 13.2 µM (inactive) | 34 µM (inactive) | 56.6 µM (inactive) | > 89.7 µM (inactive) | > 95.1 µM (inactive) | 23.8 µM (inactive) | 99.5 µM (inactive) | > 71 µM (inactive) | > 69.2 µM (inactive) | > 80.7 µM (inactive) |
| CCOC(=O)c1c(Nc2ccccc2)sc2cccnc12 | 3.24 µM (inactive) | 21.9 µM (inactive) | 14.2 µM (inactive) | 0.853 µM (active) | 18.2 µM (inactive) | 2.05 µM (inactive) | 19.9 µM (inactive) | 11.9 µM (inactive) | 28 µM (inactive) | 9.44 µM (inactive) | 7.76 µM (inactive) | 35.3 µM (inactive) | 11.1 µM (inactive) | 2.25 µM (inactive) | 17.7 µM (inactive) | 25.1 µM (inactive) | 37.2 µM (inactive) | 20.8 µM (inactive) | 3.56 µM (inactive) | 18.7 µM (inactive) |
| Cc1cc(S(=O)(=O)NC2=Nc3cccc(F)c3CN2)c(S)cc1Cl | > 100 µM (inactive) | 49.4 µM (inactive) | 66.4 µM (inactive) | > 100 µM (inactive) | 50.9 µM (inactive) | 24.8 µM (inactive) | > 100 µM (inactive) | 62.1 µM (inactive) | 28.1 µM (inactive) | 48.5 µM (inactive) | 61.7 µM (inactive) | > 100 µM (inactive) | 56.2 µM (inactive) | 36.8 µM (inactive) | 35.6 µM (inactive) | 61 µM (inactive) | > 100 µM (inactive) | 95.9 µM (inactive) | 22 µM (inactive) | > 100 µM (inactive) |
| O=C(Nc1ccccc1C(=O)O)C(=Cc1ccccc1O)NC(=O)c1ccccc1 | > 100 µM (inactive) | > 100 µM (inactive) | > 100 µM (inactive) | > 100 µM (inactive) | 58.9 µM (inactive) | > 100 µM (inactive) | > 100 µM (inactive) | > 100 µM (inactive) | 49.1 µM (inactive) | > 100 µM (inactive) | 9.27 µM (inactive) | > 100 µM (inactive) | > 100 µM (inactive) | > 100 µM (inactive) | > 100 µM (inactive) | > 100 µM (inactive) | > 100 µM (inactive) | > 100 µM (inactive) | > 100 µM (inactive) | > 100 µM (inactive) |
| CC(C)(C)c1ccc(OCCOc2ccc(C(C)(C)C)cc2N)c(N)c1 | > 100 µM (inactive) | 48.8 µM (inactive) | 60.1 µM (inactive) | > 100 µM (inactive) | 27.8 µM (inactive) | 9.89 µM (inactive) | 47.8 µM (inactive) | > 100 µM (inactive) | 25.6 µM (inactive) | > 100 µM (inactive) | > 100 µM (inactive) | 24.2 µM (inactive) | > 100 µM (inactive) | > 100 µM (inactive) | > 100 µM (inactive) | 29.9 µM (inactive) | > 100 µM (inactive) | > 100 µM (inactive) | > 100 µM (inactive) | 91 µM (inactive) |
